Data reported in patent US6231894A, “Treatments based on discovery that nitric oxide synthase is a paraquat diaphorase” (Duke University, priority 1999, dated 2001).

Legend:
[1] = test system: CPA-47 endothelial cell line; assay: LDH release from endothelial cells (cytotoxicity); format: cell-based; settings: 2 mM paraquat, 24 hours; FIG. 2(b)
Protocol: To test whether the above effect was present in intact cells, endothelial cell cultures, constitutively expressing NOS3 protein as determined by western blot analysis, were treated with 2 mM paraquat in the presence of increasing concentrations of either L-NAME or L-NMMA.
The endothelial cells were obtained as follows: CPA-47 endothelial cell line (CRL-1733) was purchased from American Type Culture Collection (Manassas, Va.). Endothelial cells were grown in T-75 flasks containing Ham's F-12 K medium supplemented by 1 mM […] and 10% equine serum (Gibco-BRL, Grand Island, N.Y.). Endothelial cells were plated at 3.5×10^4 cells/well in 24-well plates and experiments were performed 48 hours later when cells were near confluence. Medium was changed to minimal essential medium without serum supplement. Endothelial cells were from passages 30-36.
Cytotoxicity was measured as the percent release of LDH and compared to vehicl-treated cells (basal). The percent release of cytosolic lactate dehydrogenase (LDH) into the culture medium was used to assess the integrity of the cell membrane. LDH activity was measured by following the loss of NADH at 340 nm as described in Day, B. J., et al., J. Pharmacol. Exp. Ther. 275, 1227-1232 (1995). The percent release of LDH into the culture medium 24 hours after the paraquat treatment was used to assess cell injury.

[2] = Working Example XIII: accident victim with hypotension; format: in vivo, human; settings: IV 0.4 milligrams per kilogram over 2 hours
Protocol: A accident victim presents with a blood pressure of 80/60 and a hematocrit of 20. They are bleeding profusely from an abdominal would and doctors are having difficulty maintaining their blood pressure with fluid resuscitation. They are begun on an intravenous drip of paraquat of 0.4 milligrams per kilogram over 2 hours.

rat NOS1 = assay: Anaerobic reduction of paraquat by NOS1 at 600 nm; Hanes plot; format: biochemical
Protocol: Anaerobic reduction of paraquat by NOS1 to paraquat.^+ was followed at 600 nm spectrophotometrically and converted to a concentration using the extinction coefficient E600 =13,700 M^-1 cm^-1. Reactions (1 ml) were performed in the NADPH oxidation buffer described above in the absence of L-arginine, dithiothreitol and tetrahydrobiopterin. Reactions were initiated by the addition of 2 U of NOS1 and followed for 3 minutes at 37° C.

solid tumor = assay: Working Example VII: solid tumor patient; format: in vivo, human; settings: IV infusion 4 milligram per kilogram, seven cycles, after 5,6 MEXAA; two weeks
Protocol: A person is given the anti-tumor agent 5,6 dimethylxanthemone-4-acetic acid (5,6 MEXAA) to treat a solid tumor identified by biopsy on the left lower extremity, and lung. […] At this time, the patient is treated with intravenous infusion of paraquat (4 milligram per kilogram) for seven cycles.

Rabbit aortic rings = assay: Exogenous NO-induced relaxation of aortic rings; settings: 2 mM paraquat, phenylephrine 1 μM; FIG. 3(b)
Protocol: New Zealand white male rabbits weighting 3-4 kg were anaesthetized with phenobarbital (30 mg/kg/iv). The descending thoracic aorta was isolated and placed in Krebs-Henseleit buffer (pH 7.4) and stored at 4° C. until used. The vessels were cut into 5 mm rings and submerged in 25 ml double jacketed tissue baths containing Krebs-Henseleit buffer bubbled with 95% oxygen and 5% carbon dioxide at 37° C. Rings were hung on stainless steel stirrups connected to calibrated force transducers. Rings were equilibrated with 2 g resting tension for 1 hour before use and contracted with phenylephrine (1 μM). Rings were incubated with paraquat for 15 minutes before acetylcholine-induced or exogenous relaxations were performed.
In another case, rabbit aortic rings were constricted with 1 μM phenylephrine (initial contraction) and relaxed with increasing concentration of NO in the presence or absence of 2 mM paraquat. The results are shown in FIG. 3(b) where relaxations are expressed as a percent of the initial phenylephrine-induced contraction.

[3] = test system: RAW-264.7 monocyte macrophage cells; assay: LDH release from macrophages (cytotoxicity); format: cell-based
Protocol: The RAW-264.7 monocyte macrophage cells line (TIB-71) was purchased from the American Type Culture Collection (Manassas, Va.). The cells were grown in T-75 flasks containing DMEM (Gibco-BRL, Grand Island, N.Y.) supplemented with 1 mM pyruvate, 4.5 g/L glucose and […] fetal bovine serum Macrophages were plated at 2.0×10^4 cells/well in 24-well plates and experiments were performed when cells were near confluence. Macrophages were immunostimulated with 50 ng/ml lipopolysaccharide (LPS) from E. coli serotype 0111:B4 (Signia, St. Louis, Mo.) and 50 U/ml recombinant mouse interferon gamma (INF-γ, R&D Systems, Minneapolis,Minn.). Macrophages were used between passages 2-8. Cell cultures were kept in a 37° C. incubator with air and 5% carbon dioxide.
NOS2 was induced in RAW cells using a mixture of interferon-γ and lipopolysaccharide (LPS) referred to as "cytomix." Unstimulated (basal) and activated (cytomix) macrophages were treated with 0.1 mM paraquat or not treated with paraquat and cytotoxicity and NO production were assessed at 24 hours.
Cell injury was assessed by measuring LDH release.
To further exclude the role of peroxynitrite, macrophages were treated with increasing concentrations of the NO-donor, DETA NONOate in the presence of 0.1 mM paraquat. Macrophage cytotoxicity and NO release were assessed 24 hours after treatments. Cell injury was assessed by measuring LDH release.

SMILES: C[n+]1ccc(-c2cc[n+](C)cc2)cc1 [paraquat]
- increase in LDH release [1]: three-fold
- patient condition [2]: the patient is stabilized
- blood pressure ([2]; from 80/60): 100/70
- paraquat reductase activity (Hanes plot) (rat NOS1; FIG. 1(d)): increased paraquat reduction with increasing paraquat concentration
- reduction of paraquat to its cation radical (600 nm) (rat NOS1; anaerobic, without L-arginine, 37° C., 3 minutes, FIG. 1(c)): direct and progressive reduction of paraquat to its cation radical
- tumor regression (solid tumor): tumor regresses and is not longer detectable
- effect on exogenously added NO-induced relaxation (Rabbit aortic rings): did not inhibit exogenously added NO-induced relaxation
- cell injury (LDH release), single treatment ([3]; 0.1 mM paraquat or cytomix alone, 24 hours, FIG. 4(a)): very little cell injury
- paraquat-induced cytotoxicity in activated macrophages ([3]; 0.1 mM paraquat plus cytomix, 24 hours, FIG. 4(a)): potentiated in cytokine-activated macrophages
- effect of paraquat on DETA NONOate-induced cell injury ([3]; 0.1 mM paraquat, higher DETA NONOate concentrations, 24 hours, FIG. 4(c)): DETA NONOate-induced cell injury was attenuated by paraquat
- cell killing / amelioration of toxicity, conclusion ([3]; conclusion of Background Example 4): kills cells containing NOS but not cells that do not
